Measured values from patent US8562946B2, “Miniaturized 62Zn/62Cu generator for high concentration clinical delivery of 62Cu kit formulation for the facile preparation of radiolabeled Cu-bis(thiosemicarbazone) compounds” (Proportional Technologies, Inc., priority 2003, dated 2013).
Where two headings read alike, the source gives them in different places.

Tests used:
[1] = cited from earlier work
[2] = octanol/water partition coefficients of Cu bis(thiosemicarbazone) complexes; assay type: physicochemical
[3] = ligand solubility (DMSO, water); assay type: physicochemical; settings: crystalline form dissolved in DMSO
Description: Studies evaluating the compatibility of the bis(thiosemicarbazone) ligands with lyophilization based kit synthesis were conducted using H2PTSM as a model compound. The first of these studies evaluated the feasibility of ligand lyophilization and rapid reconstitution. The entire class of bis(thiosemicarbazone) compounds is very insoluble in water. Consequently, in order to prepare a principally aqueous solution for lyophilization, the crystalline form of the H2PTSM was dissolved at the maximum concentration in dimethylsulfoxide (DMSO), (200 mg/mL H2PTSM). […] To minimize the possibility of ligand precipitation, the DMSO solution was added to hot water (90° C.) during rapid stifling. This solution was then cooled to room temperature and assayed for potency using a spectrophotometer. The very small amount of DMSO in the aqueous solution is expected to sublimate along with water during lyophilization. In order to ensure maximum potency after lyophilization, an excipient (either dextrose [6.7 mg/mL], trehalose [6.7 mg/mL] or sodium acetate [5.4 mg/mL]) was added. The purpose of the excipient was to prevent the ligand from crystallizing out by maintaining dispersion in the cake formed during lyophilization. The sodium acetate performed the added function of buffering the final product to acceptable pH upon addition of 0.1-0.15 mL of ^62Zn/^62Cu generator eluted solution. […]

[4] = in humans; cited from earlier work
[5] = most animal species other than humans; cited from earlier work

CCC(C=NNC(N)=S)=NNC(N)=S.[Cu] [ETS, ^62Cu ethylglyoxal bis(thiosemicarbazone)]
binding to blood plasma [1]: low reversible binding
log P ([2]; octanol/water, from measured partition coefficients P of the corresponding 67Cu-complexes): 1.35

CNC(=S)NN=C(C)C(C)=NNC(=S)NC [H2ATSM, diacetyl-bis(N4-methylthiosemicarbazone)]
difference in octanol/water partition coefficients ([2]; H2ATSM vs H2PTSM (Table 2)): 0.34

CNC(=S)NN=CC(C)=NNC(=S)NC [H2PTSM, pyruvaldehyde bis(N4-methylthiosemicarbazone)]
maximum concentration in dimethylsulfoxide (DMSO) [3]: 200 mg/mL

CN=C([S-])N/N=C/C(C)=N/NC([S-])=NC.[Cu+2] [PTSM, Copper(II) ^62Cu pyruvaldehyde bis(N4-methylthiosemicarbazone)]
binding to blood [4]: significant binding
binding to blood [5]: low binding
